Data as given in patent publication US20070049564A1 (Wyeth, priority 2005, published 2007).
Converted amounts (≈) assume the structure as drawn. Read-outs that look alike come from different tables or passages of the source.

Columns and labels:
[1] = tested on: E. coli GC 2236; test: MIC, broth microdilution; settings: Escherichia coli
[2] = tested on: E. coli GC 2231; test: MIC, broth microdilution; settings: Escherichia coli
[3] = tested on: E. coli GC 2235; test: MIC, broth microdilution; settings: Escherichia coli
[4] = tested on: E. coli GC 2233; test: MIC, broth microdilution; settings: Escherichia coli
[5] = tested on: E. coli GC 2234; test: MIC, broth microdilution; settings: Escherichia coli
[6] = tested on: E. coli GC 2272; test: MIC, broth microdilution; settings: Escherichia coli
[7] = tested on: E. coli GC 4560; test: MIC, broth microdilution; settings: Escherichia coli
[8] = tested on: E. coli GC 6465; test: MIC, broth microdilution; settings: Escherichia coli
[9] = tested on: E. coli GC 2203; test: MIC, broth microdilution; settings: Escherichia coli
[10] = tested on: S. typhimurium GC 2172; test: MIC, broth microdilution; settings: Salmonella enterica, TYPHIMURIUM
[11] = tested on: S. aureus GC 1131; test: MIC, broth microdilution; settings: Staphylococcus aureus
[12] = tested on: S. aureus GC 6466; test: MIC, broth microdilution; settings: Staphylococcus aureus
[13] = tested on: S. aureus GC 6467; test: MIC, broth microdilution; settings: Staphylococcus aureus
[14] = tested on: S. aureus GC 1079; test: MIC, broth microdilution; settings: Staphylococcus aureus
[15] = tested on: S. epidermidis GC 4935; test: MIC, broth microdilution; settings: Staphylococcus epidermidis
[16] = tested on: E. faecalis GC 4555; test: MIC, broth microdilution; settings: Enterococcus faecalis
[17] = tested on: E. faecalis GC 2267; test: MIC, broth microdilution; settings: Enterococcus faecalis
[18] = tested on: E. faecium GC 4556; test: MIC, broth microdilution; settings: Enterococcus faecium
[19] = tested on: S. pneumoniae* GC 4465; test: MIC, broth microdilution; settings: Streptococcus pneumoniae
[20] = tested on: Staph.; test: Range of MIC for Staph. strains, including MRSA; settings: Staphylococcus aureus
[21] = read-out: MINIMAL INHIBITORY CONCENTRATION MIC, Human Serum
[22] = read-out: MINIMAL INHIBITORY CONCENTRATION MIC, Mouse Serum
[23] = read-out: MINIMAL INHIBITORY CONCENTRATION MIC, Water

## COC(=O)N(CC(=O)Nc1cc(N(C)C)c2c(c1O)C(=O)C1=C(O)[C@]3(O)C(=O)C(C(N)=O)=C(O)[C@@H](N(C)C)[C@@H]3C[C@@H]1C2)C(C)(C)C [Example 60, methyl 2-{[(5aR,6aS,7S,10aS)-9-(aminocarbonyl)-4,7-bis(dimethylamino)-1,8,10a,11-tetrahydroxy-10,12-dioxo-5,5a,6,6a,7,10,10a,12-octahydrotetracen-2-yl]amino}-2-oxoethyl(tert-butyl)carbamate]
[1]; GC2236, read-out: MINIMAL INHIBITORY CONCENTRATION MIC, Human Serum
  MIC: > 64 µg/mL
[1]; GC2236, read-out: MINIMAL INHIBITORY CONCENTRATION MIC, Mouse Serum
  MIC: > 64 µg/mL
[1]; GC2236, read-out: MINIMAL INHIBITORY CONCENTRATION MIC, Water
  MIC: > 64 µg/mL
[2]; GC2231, read-out: MINIMAL INHIBITORY CONCENTRATION MIC, Human Serum
  MIC: > 64 µg/mL
[2]; GC2231, read-out: MINIMAL INHIBITORY CONCENTRATION MIC, Mouse Serum
  MIC: > 64 µg/mL
[2]; GC2231, read-out: MINIMAL INHIBITORY CONCENTRATION MIC, Water
  MIC: > 64 µg/mL
[3]; GC2235, read-out: MINIMAL INHIBITORY CONCENTRATION MIC, Human Serum
  MIC: 64 µg/mL (≈ 99.4 µM)
[3]; GC2235, read-out: MINIMAL INHIBITORY CONCENTRATION MIC, Mouse Serum
  MIC: 64 µg/mL (≈ 99.4 µM)
[3]; GC2235, read-out: MINIMAL INHIBITORY CONCENTRATION MIC, Water
  MIC: > 64 µg/mL
[4]; GC2233, read-out: MINIMAL INHIBITORY CONCENTRATION MIC, Human Serum
  MIC: > 64 µg/mL
[4]; GC2233, read-out: MINIMAL INHIBITORY CONCENTRATION MIC, Mouse Serum
  MIC: > 64 µg/mL
[4]; GC2233, read-out: MINIMAL INHIBITORY CONCENTRATION MIC, Water
  MIC: > 64 µg/mL
[5]; GC2234, read-out: MINIMAL INHIBITORY CONCENTRATION MIC, Human Serum
  MIC: > 64 µg/mL
[5]; GC2234, read-out: MINIMAL INHIBITORY CONCENTRATION MIC, Mouse Serum
  MIC: > 64 µg/mL
[5]; GC2234, read-out: MINIMAL INHIBITORY CONCENTRATION MIC, Water
  MIC: > 64 µg/mL
[6]; GC2272, read-out: MINIMAL INHIBITORY CONCENTRATION MIC, Human Serum
  MIC: 32 µg/mL (≈ 49.7 µM)
[6]; GC2272, read-out: MINIMAL INHIBITORY CONCENTRATION MIC, Mouse Serum
  MIC: 32 µg/mL (≈ 49.7 µM)
[6]; GC2272, read-out: MINIMAL INHIBITORY CONCENTRATION MIC, Water
  MIC: 64 µg/mL (≈ 99.4 µM)
[7]; GC4560, read-out: MINIMAL INHIBITORY CONCENTRATION MIC, Human Serum
  MIC: 1 µg/mL (≈ 1.55 µM)
[7]; GC4560, read-out: MINIMAL INHIBITORY CONCENTRATION MIC, Mouse Serum
  MIC: 1 µg/mL (≈ 1.55 µM)
[7]; GC4560, read-out: MINIMAL INHIBITORY CONCENTRATION MIC, Water
  MIC: 2 µg/mL (≈ 3.11 µM)
[8]; GC6465, read-out: MINIMAL INHIBITORY CONCENTRATION MIC, Human Serum
  MIC: > 64 µg/mL
[8]; GC6465, read-out: MINIMAL INHIBITORY CONCENTRATION MIC, Mouse Serum
  MIC: > 64 µg/mL
[8]; GC6465, read-out: MINIMAL INHIBITORY CONCENTRATION MIC, Water
  MIC: > 64 µg/mL
[9]; GC2203, read-out: MINIMAL INHIBITORY CONCENTRATION MIC, Human Serum
  MIC: > 64 µg/mL
[9]; GC2203, read-out: MINIMAL INHIBITORY CONCENTRATION MIC, Mouse Serum
  MIC: > 64 µg/mL
[9]; GC2203, read-out: MINIMAL INHIBITORY CONCENTRATION MIC, Water
  MIC: > 64 µg/mL
[10]; [21]
  MIC: > 64 µg/mL
[10]; [22]
  MIC: > 64 µg/mL
[10]; [23]
  MIC: > 64 µg/mL
[11]; GC1131, read-out: MINIMAL INHIBITORY CONCENTRATION MIC, Human Serum
  MIC: 2 µg/mL (≈ 3.11 µM)
[11]; GC1131, read-out: MINIMAL INHIBITORY CONCENTRATION MIC, Mouse Serum
  MIC: 2 µg/mL (≈ 3.11 µM)
[11]; GC1131, read-out: MINIMAL INHIBITORY CONCENTRATION MIC, Water
  MIC: 8 µg/mL (≈ 12.4 µM)
[12]; GC6466, read-out: MINIMAL INHIBITORY CONCENTRATION MIC, Human Serum
  MIC: 4 µg/mL (≈ 6.21 µM)
[12]; GC6466, read-out: MINIMAL INHIBITORY CONCENTRATION MIC, Mouse Serum
  MIC: 4 µg/mL (≈ 6.21 µM)
[12]; GC6466, read-out: MINIMAL INHIBITORY CONCENTRATION MIC, Water
  MIC: 8 µg/mL (≈ 12.4 µM)
[13]; GC6467, read-out: MINIMAL INHIBITORY CONCENTRATION MIC, Human Serum
  MIC: 4 µg/mL (≈ 6.21 µM)
[13]; GC6467, read-out: MINIMAL INHIBITORY CONCENTRATION MIC, Mouse Serum
  MIC: 4 µg/mL (≈ 6.21 µM)
[13]; GC6467, read-out: MINIMAL INHIBITORY CONCENTRATION MIC, Water
  MIC: 8 µg/mL (≈ 12.4 µM)
[14]; GC1079, read-out: MINIMAL INHIBITORY CONCENTRATION MIC, Human Serum
  MIC: 2 µg/mL (≈ 3.11 µM)
[14]; GC1079, read-out: MINIMAL INHIBITORY CONCENTRATION MIC, Mouse Serum
  MIC: 2 µg/mL (≈ 3.11 µM)
[14]; GC1079, read-out: MINIMAL INHIBITORY CONCENTRATION MIC, Water
  MIC: 4 µg/mL (≈ 6.21 µM)
[15]; GC4935, read-out: MINIMAL INHIBITORY CONCENTRATION MIC, Human Serum
  MIC: 8 µg/mL (≈ 12.4 µM)
[15]; GC4935, read-out: MINIMAL INHIBITORY CONCENTRATION MIC, Mouse Serum
  MIC: 8 µg/mL (≈ 12.4 µM)
[15]; GC4935, read-out: MINIMAL INHIBITORY CONCENTRATION MIC, Water
  MIC: 16 µg/mL (≈ 24.9 µM)
[16]; GC4555, read-out: MINIMAL INHIBITORY CONCENTRATION MIC, Human Serum
  MIC: 2 µg/mL (≈ 3.11 µM)
[16]; GC4555, read-out: MINIMAL INHIBITORY CONCENTRATION MIC, Mouse Serum
  MIC: 4 µg/mL (≈ 6.21 µM)
[16]; GC4555, read-out: MINIMAL INHIBITORY CONCENTRATION MIC, Water
  MIC: 4 µg/mL (≈ 6.21 µM)
[17]; GC2267, read-out: MINIMAL INHIBITORY CONCENTRATION MIC, Human Serum
  MIC: 4 µg/mL (≈ 6.21 µM)
[17]; GC2267, read-out: MINIMAL INHIBITORY CONCENTRATION MIC, Mouse Serum
  MIC: 8 µg/mL (≈ 12.4 µM)
[17]; GC2267, read-out: MINIMAL INHIBITORY CONCENTRATION MIC, Water
  MIC: 8 µg/mL (≈ 12.4 µM)
[18]; GC4556, read-out: MINIMAL INHIBITORY CONCENTRATION MIC, Human Serum
  MIC: 4 µg/mL (≈ 6.21 µM)
[18]; GC4556, read-out: MINIMAL INHIBITORY CONCENTRATION MIC, Mouse Serum
  MIC: 4 µg/mL (≈ 6.21 µM)
[18]; GC4556, read-out: MINIMAL INHIBITORY CONCENTRATION MIC, Water
  MIC: 4 µg/mL (≈ 6.21 µM)
[19]; [21]
  MIC: 1 µg/mL (≈ 1.55 µM)
[19]; [22]
  MIC: 1 µg/mL (≈ 1.55 µM)
[19]; [23]
  MIC: 2 µg/mL (≈ 3.11 µM)
[20]; MRSA, read-out: Range of MIC, Staph (Mouse Serum)
  MIC: 2 to 8 µg/mL (≈ 3.11 to 12.4 µM)
[20]; MRSA, read-out: Range of MIC, Staph (Water)
  MIC: 4 to 16 µg/mL (≈ 6.21 to 24.9 µM)
[20]; read-out: Minimum inhibitory concentration (MIC), Staph (Human Serum)
  MIC: 2 to 8 µg/mL (≈ 3.11 to 12.4 µM)
[20]; read-out: Minimum inhibitory concentration (MIC), Staph (Water)
  MIC: 4 to 16 µg/mL (≈ 6.21 to 24.9 µM)
